Source: US20240310368A1, “DETECTION KIT FOR CATECHOLAMINES AND METABOLITES THEREOF IN PLASMA/URINE AND DETECTION METHOD THEREOF” (Calibra Scientific, Inc., priority 2023, published 2024)
Where “and” joins values, the source holds several entries; their conditions need not be identical. Equal entries are not always repeated.

Columns and labels:
[1] = Stabilizing effect of accelerated stabilizers (37° C., 14 days) on plasma samples then accelerated at 30° C. for 1.5 days; assay type: physicochemical, human; conditions: for Relative deviation %: Accelerate vs Control; for concentration in plasma samples, Control / concentration in plasma samples, Accelerate: single replicates; for concentration in plasma samples, Accelerate: stabilizer accelerated 37° C. 14 days, plasma then accelerated at 30° C. for 1.5 days
Procedure: (§1) In the present example, the stabilizing effect of the stabilizers on plasma samples, standard products and quality control products after acceleration was further verified. The stabilizers were accelerated at 37° C. for 14 days (equivalent to 1 year at 2-8° C.), added into the plasma samples in proportions and then accelerated at 30° C. for 1.5 days (equivalent to 12 months at −30° C. to −15° C.). The stabilizers were accelerated at 37° C. for 14 days (equivalent to 1 year at 2-8° C.), added into the standard products and the quality control products in proportions and then accelerated at 30° C. for 2 days (equivalent to 18 months at −30° C. to −15° C.).

[2] = Stabilizing effect of accelerated stabilizers (37° C., 14 days) on standard products and quality control products then accelerated at 30° C. for 2 days; assay type: physicochemical; conditions: for Relative deviation %: 2 days at 30° C. vs Control; for concentration in standard products and quality control products, 2 days at 30° C. / concentration in standard products and quality control products, Control: single replicates
Procedure: Standard products of epinephrine, norepinephrine, dopamine, metanephrine, normetanephrine and 3-methoxytyramine were prepared into mixed solutions, and blank plasma containing a stabilizer was used as a matrix to prepare standard products and quality control products.
as §1

[3] = samples at a high concentration level
[4] = samples at a low concentration level

SMILES	Relative deviation % [1, 3]	concentration in plasma samples, Control [1, 3]	concentration in plasma samples, Accelerate [1, 3]	Relative deviation % [1, 4]	concentration in plasma samples, Control [1, 4]	concentration in plasma samples, Accelerate [1, 4]	Relative deviation % ([2]; High concentration level)	average concentration, 2 days at 30° C. ([2]; High concentration level)	concentration in standard products and quality control products, 2 days at 30° C. ([2]; High concentration level)	average concentration, Control ([2]; High concentration level)	concentration in standard products and quality control products, Control ([2]; High concentration level)	Relative deviation % ([2]; Low concentration level)	average concentration, 2 days at 30° C. ([2]; Low concentration level)	concentration in standard products and quality control products, 2 days at 30° C. ([2]; Low concentration level)	average concentration, Control ([2]; Low concentration level)	concentration in standard products and quality control products, Control ([2]; Low concentration level)	Relative deviation % ([2]; Medium concentration level)	average concentration, 2 days at 30° C. ([2]; Medium concentration level)	concentration in standard products and quality control products, 2 days at 30° C. ([2]; Medium concentration level)	average concentration, Control ([2]; Medium concentration level)	further results
COc1cc(CCN)ccc1O [Group 3-MT]	−2.0%	0.38458 ng/mL and 0.38086 ng/mL and 0.37856 ng/mL	0.35799 ng/mL and 0.37926 ng/mL and 0.38345 ng/mL	0.6%	0.06389 ng/mL and 0.06483 ng/mL and 0.06347 ng/mL	0.06307 ng/mL and 0.062 ng/mL and 0.06825 ng/mL	−3.54%	1001.8 pg/mL	1.00258 ng/mL and 0.99459 ng/mL and 1.00823 ng/mL	1038.58 pg/mL	1.01486 ng/mL and 1.01865 ng/mL and 1.08223 ng/mL	−8.93%	10.93 pg/mL	0.01106 ng/mL and 0.01049 ng/mL and 0.01124 ng/mL	12 pg/mL	0.01245 ng/mL and 0.01066 ng/mL and 0.0129 ng/mL	−4.98%	182.01 pg/mL	0.16702 ng/mL and 0.19198 ng/mL and 0.18703 ng/mL	191.55 pg/mL	concentration in standard products and quality control products, Control ([2]; Medium concentration level): 0.19324 ng/mL and 0.19663 ng/mL and 0.18479 ng/mL
CNCC(O)c1ccc(O)c(OC)c1 (stereo not drawn) [MN]	−1.2%	0.41672 ng/mL and 0.40668 ng/mL and 0.40997 ng/mL	0.39738 ng/mL and 0.41965 ng/mL and 0.40205 ng/mL	1.9%	0.07592 ng/mL and 0.07977 ng/mL and 0.07321 ng/mL	0.0778 ng/mL and 0.07674 ng/mL and 0.07872 ng/mL	0.61%	984.35 pg/mL	1.00342 ng/mL and 0.93428 ng/mL and 1.01536 ng/mL	978.42 pg/mL	1.00662 ng/mL and 0.97242 ng/mL and 0.9562 ng/mL	2.69%	12.16 pg/mL	0.01233 ng/mL and 0.01302 ng/mL and 0.01113 ng/mL	11.84 pg/mL	0.01265 ng/mL and 0.01291 ng/mL and 0.00997 ng/mL	−1.18%	198.93 pg/mL	0.20299 ng/mL and 0.20812 ng/mL and 0.18568 ng/mL	201.31 pg/mL	concentration in standard products and quality control products, Control ([2]; Medium concentration level): 0.21281 ng/mL and 0.1969 ng/mL and 0.19422 ng/mL
NC[C@H](O)c1ccc(O)c(O)c1 [NE]	−7.1%	1.73055 ng/mL and 1.84024 ng/mL and 1.88485 ng/mL	1.79476 ng/mL and 1.56875 ng/mL and 1.70297 ng/mL	−2.5%	0.27092 ng/mL and 0.2617 ng/mL and 0.26601 ng/mL	0.26432 ng/mL and 0.25764 ng/mL and 0.25636 ng/mL	0.32%	4998.13 pg/mL	4.88469 ng/mL and 4.96531 ng/mL and 5.14439 ng/mL	4982.23 pg/mL	4.87738 ng/mL and 5.14511 ng/mL and 4.9242 ng/mL	−8.19%	55.15 pg/mL	0.05733 ng/mL and 0.05299 ng/mL and 0.05514 ng/mL	60.07 pg/mL	0.06429 ng/mL and 0.06019 ng/mL and 0.05575 ng/mL	1.77%	994.89 pg/mL	0.98928 ng/mL and 1.01881 ng/mL and 0.97658 ng/mL	977.62 pg/mL	concentration in standard products and quality control products, Control ([2]; Medium concentration level): 0.97173 ng/mL and 0.97142 ng/mL and 0.98969 ng/mL
COc1cc(C(O)CN)ccc1O (stereo not drawn) [NMN]	2.1%	0.97087 ng/mL and 0.85456 ng/mL and 0.85498 ng/mL	0.91096 ng/mL and 0.88464 ng/mL and 0.94153 ng/mL	1.7%	0.17577 ng/mL and 0.16472 ng/mL and 0.17242 ng/mL	0.17659 ng/mL and 0.17047 ng/mL and 0.17436 ng/mL	−3.68%	1910.2 pg/mL	1.89388 ng/mL and 1.85479 ng/mL and 1.98193 ng/mL	1983.21 pg/mL	2.00785 ng/mL and 1.95209 ng/mL and 1.98969 ng/mL	1.41%	24.2 pg/mL	0.02503 ng/mL and 0.02506 ng/mL and 0.0225 ng/mL	23.86 pg/mL	0.02255 ng/mL and 0.02588 ng/mL and 0.02315 ng/mL	1.5%	405.18 pg/mL	0.39387 ng/mL and 0.42435 ng/mL and 0.39731 ng/mL	399.18 pg/mL	concentration in standard products and quality control products, Control ([2]; Medium concentration level): 0.39333 ng/mL and 0.41828 ng/mL and 0.38593 ng/mL
